Measured values reported in patent US10286084B2, “Compositions for the inactivation of virus replication and methods of making and using the same” (priority 2014, dated 2019).

Legend:
Assay type in all cases: cell-based, human
[1] = tested on: retinoblastoma (Rb) protein; experiment: Western blot and pRB quantification in transfected HeLa cells
Description: (§1) Phenotypic analysis of RGNs in HeLa was performed using the Fugene6 transfection reagent as per the manufacturer's protocol. Cells were plated at 2.5×10^5 cells per well in 6-well plates and transfected with a 3 to 1 ratio of RGN expression vector to pLCE (a GFP-expressing plasmid included to determine transfection efficiency). SiHa cells were transfected with HPV-16-specific RGN expression vectors using Lipofectamine3000 (Clontech) using the manufacturer's protocol. Cells were then harvested and lysed in SDS/β-mercaptoethanol protein lysis buffer 48 hours post transfection. Lysates were subjected to electrophoresis on 4-20% SDS-polyacrylamide gels (Bio-Rad) and transferred to nitrocellulose membranes. The membranes were then probed in 5% milk-PBS-T (PBS, 0.1% Tween 20, 0.5% bovine serum albumin) with the following antibodies: anti-Flag (Sigma F1804), a rabbit Rev polyclonal antiserum (Malim et al., 1989), anti-β-actin (Santa Cruz S.C.-47778), anti-p53 (Santa Cruz S.C.-126), anti-p21 (Santa Cruz S.C.-397), and anti-Rb (BD Pharmigen 554136). The membranes were washed in PBS-T, incubated with a species-specific secondary antibody, and then washed again in PBS-T. The membranes were incubated with Western Bright Sirius Western blot detection kit (Advansta) and signals captured using GeneSnap and quantified using GeneTools (Syngene). […]

[2] = tested on: p53 and p21 expression; experiment: Western blot of transfected HeLa cells for p53 and p21; conditions: Spy Cas9, 48 h post-transfection
Description: as §1

[3] = tested on: p53 effector protein p21; experiment: Western blot of transfected SiHa cells for p21; conditions: SiHa (HPV-16) cells, Spy Cas9
Description: as §1, with “The membranes were then probed in 5% milk-PBS-T (PBS, 0.1% Tween 20, 0.5% bovine serum albumin) with the following antibodies: anti-Flag (Sigma F1804), a rabbit Rev polyclonal antiserum (Malim et al., 1989), anti-β-actin (Santa Cruz S.C.-47778), anti-p53 (Santa Cruz S.C.-126), anti-p21 (Santa Cruz S.C.-397), and anti-Rb (BD Pharmigen 554136).” left out
All the work described thus far used the HPV-18 transformed cervical carcinoma cell line HeLa. To extend these studies, we also analyzed the human SiHa cervical carcinoma cell line, which is transformed by HPV-16 (Seedorf et al., 1987), using sgRNAs specific for HPV-16 E6 and E7, which differ in sequence from HPV-18 E6 and E7. […]

E7 sgRNA1: Spy Cas9 sgRNA for HPV-18 E7, GGAGCAATTAAGCGACTCAG; SEQ ID NO: 10 (expressed or natural sequence)
increase in Rb expression normalized to β-actin internal control ([1]; Spy Cas9, 48 h post-transfection): 1.4±0.03 fold | increase in Rb expression over the control, decrease of Cas9 expression taken into account ([1]; Spy Cas9, p=0.011): 5.54±1.42 fold

E6 sgRNA1: Spy Cas9 sgRNA for HPV-18 E6, GGCGCTTTGAGGATCCAACA; SEQ ID NO: 8 (expressed or natural sequence)
p53 and p21 expression [2]: specific induction of both p53 and p21 expression | p21 expression [3]: failed to induce p21 expression
